The values below are quoted from earlier work in patent US20220040193A1, “FORMULATIONS OF PHOSPHOINOSITIDE 3-KINASE INHIBITORS” (VENTHERA, INC., priority 2020, published 2022).

For the molecule `Oc1cccc(-c2nc(N3CCOCC3)c3sccc3n2)c1` [MTPP, 3-(4-morpholinothieno(3,2-d)pyrimidin-2-yl)phenol], the “cancer cell growth inhibiting activity” value in the data set with cancer cell is “cancer cell growth inhibiting activity”. In the data set on PI3K, the PI3K inhibiting activity entry is “excellent PI3K inhibiting activity”.
